Assay results: paper PMC8910447 (International Journal of Molecular Sciences, 2022)
Read-outs that look alike come from different tables or passages of the source.

Legend:
EBOVpp = assay: microbe, parasite or virus in culture; type: cell-based, Zaire ebolavirus
in vitro = conditions: human
[1] = system: pCMV C-His (negative control); type: binding
EBOV-GP = EBOV-GP (Zaire ebolavirus, UniProt Q05320); assay: biochemical; type: binding, Ebola virus
[2] = system: infectious recombinant EBOV; conditions: read-out: IC50 against infectious recombinant EBOV infection; cited from earlier work
[3] = Zaire ebolavirus, A549, read-out: IC50 (M) against infection with EBOVpp
[4] = Zaire ebolavirus, A549, n = 3, read-out: EBOVpp IC50

Sequence of EBOV-GP (Q05320 33-676 limits assumed): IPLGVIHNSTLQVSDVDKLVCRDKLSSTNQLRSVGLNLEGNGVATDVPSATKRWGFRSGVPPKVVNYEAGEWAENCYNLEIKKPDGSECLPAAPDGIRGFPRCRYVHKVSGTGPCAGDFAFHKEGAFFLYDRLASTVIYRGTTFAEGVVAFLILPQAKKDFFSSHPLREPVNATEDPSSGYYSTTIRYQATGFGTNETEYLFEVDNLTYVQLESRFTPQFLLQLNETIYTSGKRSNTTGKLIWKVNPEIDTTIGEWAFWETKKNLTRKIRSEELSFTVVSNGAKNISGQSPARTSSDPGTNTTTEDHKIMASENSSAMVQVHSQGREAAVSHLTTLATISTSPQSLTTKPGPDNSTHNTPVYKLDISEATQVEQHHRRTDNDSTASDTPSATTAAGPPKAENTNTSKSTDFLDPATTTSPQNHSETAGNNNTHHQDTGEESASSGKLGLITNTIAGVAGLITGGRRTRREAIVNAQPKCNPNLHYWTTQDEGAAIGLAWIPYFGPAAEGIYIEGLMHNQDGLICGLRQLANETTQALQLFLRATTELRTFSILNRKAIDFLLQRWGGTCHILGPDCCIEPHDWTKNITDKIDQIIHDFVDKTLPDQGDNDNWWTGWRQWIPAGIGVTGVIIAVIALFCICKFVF

Row | SMILES | inhibition at 10 µM (EBOVpp; Zaire ebolavirus, A549, read-out: inhibitory effect against EBOVpp infection) [%] | IC50 (EBOVpp; [3]) [M] | IC50 (EBOVpp; [4]) [M] | CC50 (in vitro) [µM] | Selectivity Index (SI) (EBOVpp) | binding curve with the negative control [1] | Kd (EBOV-GP) [µM] | IC50 [2] [µM]
1 | O=C(O[C@@H]1Cc2c(O)cc(O)cc2O[C@@H]1c1ccc(O)c(O)c1)c1ccccc1 [13b, (2R,3R)-2-(3,4-Dihydroxyphenyl)-5,7-dihydroxychroman-3-yl benzoate] | > 60 |  |  |  |  |  |  | 
2 | Oc1cc(O)c2c(c1)O[C@H](c1ccc(O)c(O)c1)[C@@H](O)C2 [(+) Catechin (4), (+)-catechin] |  | 3.6e-05 | 3.6e-05 | > 34.5 |  |  |  | 
3 | Oc1cc(O)c2c(c1)O[C@H](c1ccc(O)c(O)c1)[C@H](O)C2 [(−) Epicatechin (5), (−)-epicatechin] |  | 2.21e-05 | 2.21e-05 | > 172 | >7.79 |  |  | 
4 | O=C(O[C@@H]1Cc2c(O)cc(O)cc2O[C@@H]1c1ccc(O)c(O)c1)c1cc(O)c(O)c(O)c1 [ECG (9), epicatechin 3-O-gallate] |  | 2.95e-06 | 2.95e-06 | > 22.6 | >7.68 |  |  | 
5 | O=C(O[C@@H]1Cc2c(O)cc(O)cc2O[C@@H]1c1cc(O)c(O)c(O)c1)c1cc(O)c(O)c(O)c1 [EGCG (8), (−)-epigallocatechin-3-O-gallate] |  | 2.8e-06 | 2.8e-06 | > 21.8 | >7.81 |  |  | 
6 | Oc1cc(O)c2c(c1)O[C@H](c1cc(O)c(O)c(O)c1)[C@H](O)C2 [Epigallocatechin (11), epigallocatechin] |  | 5.53e-06 | 5.53e-06 | > 163 | >29.5 |  |  | 
7 | Oc1cc(O)c2c(c1)O[C@H](c1cc(O)c(O)c(O)c1)[C@@H](O)C2 [Gallocatechin (10), gallocatechin] |  | 1.24e-05 | 1.24e-05 | > 163 | >13.1 |  |  | 
8 | Oc1cc(O)c2c(c1)O[C@H](c1ccc(O)c(O)c1)[C@H](O)[C@H]2c1c(O)cc(O)c2c1O[C@H](c1ccc(O)c(O)c1)[C@@H](O)C2 [Procyanidin B1 (6), Procyanidin B1] |  | 9.13e-07 | 9.5e-07 | > 86.5 | >91.1 |  |  | 
9 | Oc1cc(O)c2c(c1)O[C@H](c1ccc(O)c(O)c1)[C@H](O)[C@H]2c1c(O)cc(O)c2c1O[C@H](c1ccc(O)c(O)c1)[C@H](O)C2 [Procyanidin B2 (1), procyanidin B2] |  | 8.29e-07 | 8.3e-07 | > 86.5 | >104 | could not produce a binding curve | 13 | 
10 | Oc1cc(O)c2c(c1)O[C@H](c1ccc(O)c(O)c1)[C@@H](O)[C@@H]2c1c(O)cc(O)c2c1O[C@H](c1ccc(O)c(O)c1)[C@@H](O)C2 [Procyanidin B3 (7), Procyanidin B3] |  |  | 1.52e-06 | > 86.5 | >57.1 |  |  | 
11 | Oc1cc(O)c2c(c1)O[C@H](c1ccc(O)c(O)c1)[C@H](O)[C@H]2c1c(O)cc(O)c2c1O[C@H](c1ccc(O)c(O)c1)[C@H](O)[C@H]2c1c(O)cc(O)c2c1O[C@H](c1ccc(O)c(O)c1)[C@H](O)C2 [Procyanidin C1 (2), procyanidin C1] |  |  | > 1.15e-05 | > 11.5 |  |  |  | 
12 | Oc1cc(O)c2c(c1)OC(c1ccc(O)c(O)c1)C(O)C2c1c(O)cc(O)c2c1OC(c1ccc(O)c(O)c1)C(O)C2c1c(O)cc(O)c2c1OC(c1ccc(O)c(O)c1)C(O)C2c1c(O)cc(O)c2c1OC(c1ccc(O)c(O)c1)C(O)C2 (stereo not drawn) [Procyanidin tetramer (3), epicatechin-(4β→8)-epicatechin-(4β→8)-epicatechin-(4β→8)-epicatechin] |  |  | > 1.15e-05 | > 11.5 |  |  |  | 
13 | CN(C)CCOc1ccc(/C(=C(/CCCl)c2ccccc2)c2ccccc2)cc1 [Toremifene, toremifene, reference compound] |  |  | 1.7e-07 | 2.92 |  | could not produce a binding curve |  | 
14 | O=C(O)c1cc(O)c(O)c(O)c1 [gallic acid] |  |  |  |  |  |  |  | 25.4
